According to ChEMBL document CHEMBL1146269, “Intermediate analogue inhibitors of mandelate racemase: N-Hydroxyformanilide and cupferron” (Bioorg Med Chem Lett, 2007):

Tests used:
Mandelate racemase = molecular target: T1, Mandelate racemase (Pseudomonas putida, UniProt P11444); experiment: Inhibition of mandelate racemase in Pseudomonas putida
T1 sequence (P11444 whole entry): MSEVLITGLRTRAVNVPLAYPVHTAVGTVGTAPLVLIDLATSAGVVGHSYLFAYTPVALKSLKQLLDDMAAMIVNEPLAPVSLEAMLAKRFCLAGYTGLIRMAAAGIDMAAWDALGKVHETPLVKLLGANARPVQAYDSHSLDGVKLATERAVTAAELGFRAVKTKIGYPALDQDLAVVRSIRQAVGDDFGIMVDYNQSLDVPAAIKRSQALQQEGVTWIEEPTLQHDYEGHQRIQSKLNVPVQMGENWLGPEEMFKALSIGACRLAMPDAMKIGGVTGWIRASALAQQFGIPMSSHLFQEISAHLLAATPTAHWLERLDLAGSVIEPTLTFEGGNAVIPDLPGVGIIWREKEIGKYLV

[1] = Dissociation constant, pKa of the compound; assay type: physicochemical

pKa [1] | SMILES | Ki (Mandelate racemase)
 | O=C1Cc2ccccc2N1O | 510 µM
7.92 | O=CN(O)c1ccccc1 | 2.79 µM
 | O=C(NO)c1ccccc1 [BENZOHYDROXAMATE] | 12 µM
 | O=NN(O)c1ccccc1 [CUPFERRON] | 2.67 µM
